How the values were obtained:
[1] = tested on: HCT116 colorectal cancer cells; test: Single Agent HCT116 Activity, 96 h cell viability (MTS) assay; assay type: cell-based; details: Homo sapiens, HCT-116, read-out: Single agent HT116 IC50
Experimental: Compounds can be screened for single agent activity against HCT116 colorectal cancer cells using a 96 h cell viability (MTS) assay. HCT116 are plated at 470 cells per well in 96-well polystyrene plates (Costar 3596) in 150 μl of McCoy's 5A media (Sigma M8403) supplemented with 10% foetal bovine serum (JRH Biosciences 12003), Penicillin/Streptomycin solution diluted 1:100 (Sigma P7539), and 2 mM L-glumtamine (Sigma G7513), and allowed to adhere overnight at 37° C. in 5% CO2. Compounds are then added to the cell media in 2-fold serial dilutions from a top final concentration of 10 μM as a full matrix of concentrations in a final cell volume of 200 μl, and the cells are then incubated at 37° C. in 5% CO2. After 96 h, 40 μl of MTS reagent (Promega G358a) is added to each well and the cells are incubated for 1 h at 37° C. in 5% CO2. Finally, absorbance is measured at 490 nm using a SpectraMax Plus 384 reader (Molecular Devices) and IC50 values can be calculated (see Table 2 below for data).

[2] = biological target: T1, full-length ATR (Homo sapiens, UniProt Q13535); test: ATR Inhibition Assay (radioactive-phosphate incorporation); assay type: biochemical; details: Ki(app); 10 μM ATP, 5 nM full-length ATR, 25° C.
T1 construct: Assays were carried out at 25° C. in the presence of 5 nM full-length ATR
Experimental: Compounds were screened for their ability to inhibit ATR kinase using a radioactive-phosphate incorporation assay. Assays were carried out in a mixture of 50 mM Tris/HCl (pH 7.5), 10 mM MgCl2 and 1 mM DTT. Final substrate concentrations were 10 μM [γ-33P]ATP (3 mCi 33P ATP/mmol ATP, Perkin Elmer) and 800 μM target peptide (ASELPASQPQPFSAKKK (SEQ ID NO: 1)).
Assays were carried out at 25° C. in the presence of 5 nM full-length ATR. An assay stock buffer solution was prepared containing all of the reagents listed above, with the exception of ATP and the test compound of interest. 13.5 μL of the stock solution was placed in a 96 well plate followed by addition of 2 μL of DMSO stock containing serial dilutions of the test compound (typically starting from a final concentration of 15 μM with 3-fold serial dilutions) in duplicate (final DMSO concentration 7%). The plate was pre-incubated for 10 minutes at 25° C. and the reaction initiated by addition of 15 μL [γ-33P]ATP (final concentration 10 μM).
The reaction was stopped after […] by the addition of 30 μL 0.1M phosphoric acid containing 2 mM ATP. […]
After removing mean background values for all of the data points, Ki(app) data were calculated from non-linear regression analysis of the initial rate data using the Prism software package (GraphPad Prism version 3.0cx for Macintosh, GraphPad Software, San Diego Calif., USA). […]

[3] = Pharmacokinetics following intravenous dosing; details: in vivo
Experimental: Noncompartmental pharmacokinetic parameters were analyzed using Watson Bioanalytical LIMS (Version 7.4; Thermo Fisher Scientific) from either the blood or plasma samples. The following parameters were estimated following intravenous (IV) dosing; terminal elimination half-life (T1/2=ln(2)/λz, where λz is the first order rate constant associated with the terminal (log-linear) portion of the curve.
The area under the curve (AUClast=area under the curve from the time of dosing to the last measurable concentration). The area under the curve extrapolated to infinity (AUC0-∞=AUClast+Clast/λz). The clearance (Cl; Cl=DoseIV/AUC0-∞). The area under the first moment curve (AUMClast=area under the concentration times time versus time curve from the time of dosing to the last measurable concentration). The area under the first moment curve extrapolated to infinity (AUMC0-∞=AUMClast+Clast×t/λz+Clast/λz^2). The mean residence time (MRT=AUMC0-∞/AUC0-∞) and the steady state volume of distribution (Vdss=MRT×Cl) (see Table 2 below for data).
Clearance and volume of distribution can also be obtained using methods known to one of skill in the art (see e.g., Handbook of Essential Pharmacokinetics, Pharmacodynamics and Drug Metabolism for Industrial Scientists, Younggil Kwon, pp 18-28 (Non-compartmental Approach)).

[4] = biological target: T2, intracellular ATR (Homo sapiens, UniProt Q13535); test: Cellular ATR Inhibition Assay (phosphorylated H2AX immunofluorescence in hydroxyurea treated HT29 cells); assay type: cell-based; details: 2 mM hydroxyurea, phosphorylated H2AX Ser139
T2 construct: endogenous in cells; host or cells: HT29
Experimental: Compounds can be screened for their ability to inhibit intracellular ATR using an immunofluorescence microscopy assay to detect phosphorylation of the ATR substrate histone H2AX in hydroxyurea treated cells. HT29 cells are plated at 14,000 cells per well in 96-well black imaging plates (BD 353219) in McCoy's 5A media (Sigma M8403) supplemented with 10% foetal bovine serum (JRH Biosciences 12003), Penicillin/Streptomycin solution diluted 1:100 (Sigma P7539), and 2 mM L-glumtamine (Sigma G7513), and allowed to adhere overnight at 37° C. in 5% CO2. Compounds are then added to the cell media from a final concentration of 25 μM in 3-fold serial dilutions and the cells are incubated at 37° C. in 5% CO2. […]
Cells are imaged for Alexa Fluor 488 and Hoechst intensity using the BD Pathway 855 Bioimager and Attovision software (BD Biosciences, Version 1.6/855) to quantify phosphorylated H2AX Ser139 and DNA staining, respectively. The percentage of phosphorylated H2AX-positive nuclei in a montage of 9 images at 20× magnification is then calculated for each well using BD Image Data Explorer software (BD Biosciences Version 2.2.15). […] The percentage of H2AX positive nuclei is finally plotted against concentration for each compound and IC50s for intracellular ATR inhibition are determined using Prism software (GraphPad Prism version 3.0cx for Macintosh, GraphPad Software, San Diego Calif., USA).

[5] = tested on: HCT116 colorectal cancer cells; test: Cisplatin Sensitization Assay, 96 h cell viability (MTS); assay type: cell-based; details: concentration of compound required to reduce the IC50 of Cisplatin alone by at least 3-fold; HCT116, 96 h
Experimental: Compounds can be screened for their ability to sensitize HCT116 colorectal cancer cells to Cisplatin using a 96 h cell viability (MTS) assay. […] Compounds and Cisplatin are then both added simultaneously to the cell media in 2-fold serial dilutions from a top final concentration of 10 μM as a full matrix of concentrations in a final cell volume of 200 μl, and the cells are then incubated at 37° C. in 5% CO2. After 96 h, 40 μl of MTS reagent (Promega G358a) is added to each well and the cells are incubated for 1 h at 37° C. in 5% CO2. Finally, absorbance is measured at 490 nm using a SpectraMax Plus 384 reader (Molecular Devices) and the concentration of compound required to reduce the IC50 of Cisplatin alone by at least 3-fold (to 1 decimal place) can be reported.

T2 sequence (Q13535 whole entry): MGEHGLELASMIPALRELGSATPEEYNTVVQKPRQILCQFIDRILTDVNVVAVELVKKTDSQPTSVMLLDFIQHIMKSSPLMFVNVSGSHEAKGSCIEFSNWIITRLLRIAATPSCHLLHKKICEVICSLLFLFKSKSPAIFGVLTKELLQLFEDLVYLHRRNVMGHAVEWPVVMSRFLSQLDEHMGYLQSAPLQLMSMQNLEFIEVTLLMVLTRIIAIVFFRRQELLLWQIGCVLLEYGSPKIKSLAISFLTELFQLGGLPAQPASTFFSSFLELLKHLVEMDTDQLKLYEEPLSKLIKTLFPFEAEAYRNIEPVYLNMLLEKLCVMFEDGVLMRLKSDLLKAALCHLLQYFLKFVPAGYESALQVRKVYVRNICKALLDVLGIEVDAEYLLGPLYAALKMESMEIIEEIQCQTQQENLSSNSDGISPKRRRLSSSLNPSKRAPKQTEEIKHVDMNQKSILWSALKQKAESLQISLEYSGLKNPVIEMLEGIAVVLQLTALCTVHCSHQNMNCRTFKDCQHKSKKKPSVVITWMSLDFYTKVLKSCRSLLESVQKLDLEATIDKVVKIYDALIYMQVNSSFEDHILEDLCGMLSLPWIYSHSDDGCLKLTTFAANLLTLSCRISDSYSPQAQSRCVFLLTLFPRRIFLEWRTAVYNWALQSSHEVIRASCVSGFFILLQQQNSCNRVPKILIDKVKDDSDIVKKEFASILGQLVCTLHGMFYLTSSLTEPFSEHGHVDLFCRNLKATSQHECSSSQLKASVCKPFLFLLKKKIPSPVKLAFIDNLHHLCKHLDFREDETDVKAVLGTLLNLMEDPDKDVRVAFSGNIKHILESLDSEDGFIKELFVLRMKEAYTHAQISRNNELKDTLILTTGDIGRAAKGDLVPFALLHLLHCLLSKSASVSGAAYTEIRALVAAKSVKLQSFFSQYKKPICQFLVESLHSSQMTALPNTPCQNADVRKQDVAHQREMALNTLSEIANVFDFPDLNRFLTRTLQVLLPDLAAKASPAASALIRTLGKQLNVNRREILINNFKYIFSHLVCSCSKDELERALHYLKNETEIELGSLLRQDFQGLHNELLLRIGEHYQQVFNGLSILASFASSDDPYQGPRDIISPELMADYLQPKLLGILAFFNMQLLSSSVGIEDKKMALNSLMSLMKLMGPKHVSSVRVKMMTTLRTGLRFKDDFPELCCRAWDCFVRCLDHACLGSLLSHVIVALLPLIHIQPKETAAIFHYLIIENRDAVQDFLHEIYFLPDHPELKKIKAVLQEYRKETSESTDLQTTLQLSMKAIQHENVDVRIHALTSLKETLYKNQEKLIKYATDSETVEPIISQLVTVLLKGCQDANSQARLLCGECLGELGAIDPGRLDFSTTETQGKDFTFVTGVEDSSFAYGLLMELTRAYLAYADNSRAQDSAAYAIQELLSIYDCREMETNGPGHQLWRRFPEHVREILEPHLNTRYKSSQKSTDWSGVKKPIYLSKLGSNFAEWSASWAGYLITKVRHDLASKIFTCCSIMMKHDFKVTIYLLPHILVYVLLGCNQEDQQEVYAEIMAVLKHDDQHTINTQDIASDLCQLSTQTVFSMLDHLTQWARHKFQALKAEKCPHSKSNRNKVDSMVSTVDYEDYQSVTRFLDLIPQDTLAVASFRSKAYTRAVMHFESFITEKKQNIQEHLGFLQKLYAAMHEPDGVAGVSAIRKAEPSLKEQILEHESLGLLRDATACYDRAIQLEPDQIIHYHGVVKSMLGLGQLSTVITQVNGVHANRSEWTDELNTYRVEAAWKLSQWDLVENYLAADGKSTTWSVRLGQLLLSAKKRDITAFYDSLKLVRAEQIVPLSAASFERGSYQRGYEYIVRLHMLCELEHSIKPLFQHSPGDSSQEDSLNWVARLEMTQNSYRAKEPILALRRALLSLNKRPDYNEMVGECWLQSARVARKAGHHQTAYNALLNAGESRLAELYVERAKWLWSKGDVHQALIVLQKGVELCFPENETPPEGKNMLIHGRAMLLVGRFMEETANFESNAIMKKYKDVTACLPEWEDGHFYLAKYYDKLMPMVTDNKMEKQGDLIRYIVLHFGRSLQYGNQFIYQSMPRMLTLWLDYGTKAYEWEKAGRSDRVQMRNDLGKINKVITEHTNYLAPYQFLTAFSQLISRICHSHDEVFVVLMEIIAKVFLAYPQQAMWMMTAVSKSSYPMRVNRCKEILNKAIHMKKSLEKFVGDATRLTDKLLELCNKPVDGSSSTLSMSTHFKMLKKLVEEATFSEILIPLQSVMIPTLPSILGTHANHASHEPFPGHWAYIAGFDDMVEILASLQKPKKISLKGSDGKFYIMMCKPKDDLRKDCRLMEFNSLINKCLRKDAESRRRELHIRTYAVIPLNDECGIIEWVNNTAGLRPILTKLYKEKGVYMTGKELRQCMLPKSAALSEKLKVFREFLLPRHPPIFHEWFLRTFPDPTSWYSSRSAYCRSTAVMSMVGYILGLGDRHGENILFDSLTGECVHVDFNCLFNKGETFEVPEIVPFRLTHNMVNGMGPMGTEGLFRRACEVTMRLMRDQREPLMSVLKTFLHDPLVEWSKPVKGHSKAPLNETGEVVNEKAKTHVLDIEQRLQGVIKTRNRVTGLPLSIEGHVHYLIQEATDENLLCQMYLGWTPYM
T2 sequence (Q8WXE1 whole entry partner): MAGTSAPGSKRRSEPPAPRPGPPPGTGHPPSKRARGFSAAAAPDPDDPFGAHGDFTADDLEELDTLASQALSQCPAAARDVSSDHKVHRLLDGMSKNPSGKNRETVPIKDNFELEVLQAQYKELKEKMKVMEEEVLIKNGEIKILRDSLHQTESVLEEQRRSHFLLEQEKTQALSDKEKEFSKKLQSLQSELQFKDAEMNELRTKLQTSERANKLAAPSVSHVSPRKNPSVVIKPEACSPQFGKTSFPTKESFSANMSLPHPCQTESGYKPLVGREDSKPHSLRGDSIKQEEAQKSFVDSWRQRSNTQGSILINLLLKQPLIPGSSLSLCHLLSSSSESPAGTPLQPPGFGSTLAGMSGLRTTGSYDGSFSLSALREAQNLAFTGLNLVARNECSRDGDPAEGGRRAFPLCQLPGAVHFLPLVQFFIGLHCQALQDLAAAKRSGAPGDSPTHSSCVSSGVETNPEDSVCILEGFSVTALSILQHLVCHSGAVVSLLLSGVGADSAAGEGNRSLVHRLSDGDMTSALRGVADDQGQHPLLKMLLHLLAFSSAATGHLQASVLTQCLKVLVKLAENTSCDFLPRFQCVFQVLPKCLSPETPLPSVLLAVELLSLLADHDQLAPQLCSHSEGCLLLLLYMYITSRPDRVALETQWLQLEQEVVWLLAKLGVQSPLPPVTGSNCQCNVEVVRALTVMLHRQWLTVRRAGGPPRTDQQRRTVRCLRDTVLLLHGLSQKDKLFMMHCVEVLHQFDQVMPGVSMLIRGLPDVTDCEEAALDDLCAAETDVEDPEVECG
T1 sequence (Q13535 whole entry): as the sequence (Q13535 whole entry) above

- IC50 [1]: 62 nM
- Ki [2]: 0.21 nM
- clearance ([3]; blood or plasma samples): 6 mL/min/kg
- Vd ([3]; steady state volume of distribution, read-out: Vss): 0.9 L/kg
- IC50 [4]: 16 nM
Structure (SMILES): CC(C)S(=O)(=O)c1ccc(-c2cnc(N)c(-c3cc(-c4ccc(CNCC5COC5)cc4)no3)n2)cc1 [I, 5-(4-(isopropylsulfonyl)phenyl)-3-(3-(4-((oxetan-3-ylmethylamino)methyl)phenyl)isoxazol-5-yl)pyrazin-2-amine]
- Cisplatin sensitization [5]: 39 nM
